Reference: ChEMBL document CHEMBL1909046, “DrugMatrix in vitro pharmacology data”

Legend:
[1] = target: T1, Alpha-1B adrenergic receptor (Rattus norvegicus, UniProt P15823); assay: DRUGMATRIX: Alpha-1B adrenergic receptor radioligand binding (ligand: prazosin); type: cell membranes, Wistar, Liver, Membrane; settings: Not Active = under 50% inhibition at 10 µM
T1 sequence (P15823 whole entry): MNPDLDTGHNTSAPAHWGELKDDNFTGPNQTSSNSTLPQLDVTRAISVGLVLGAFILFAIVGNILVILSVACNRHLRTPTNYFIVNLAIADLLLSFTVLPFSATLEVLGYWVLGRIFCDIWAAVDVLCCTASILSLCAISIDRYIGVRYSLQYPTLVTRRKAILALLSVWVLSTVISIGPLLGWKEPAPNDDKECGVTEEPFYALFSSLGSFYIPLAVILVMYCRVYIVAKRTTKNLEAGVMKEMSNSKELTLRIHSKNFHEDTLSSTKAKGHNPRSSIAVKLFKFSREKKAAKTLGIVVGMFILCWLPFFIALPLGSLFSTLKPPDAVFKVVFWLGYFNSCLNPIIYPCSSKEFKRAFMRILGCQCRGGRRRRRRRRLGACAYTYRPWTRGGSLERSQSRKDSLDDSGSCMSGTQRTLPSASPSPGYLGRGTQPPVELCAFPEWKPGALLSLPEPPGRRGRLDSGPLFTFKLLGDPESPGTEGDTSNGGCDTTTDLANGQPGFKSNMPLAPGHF

[2] = target: T2, Alpha-2A adrenergic receptor (Homo sapiens, UniProt P08913); type: cell membranes, Sf9, Membrane; settings: for Ki: read-out: Ki; as to all read-outs here: in other assays of this panel Not Active means under 50% inhibition at 10 µM
T2 sequence (P08913 whole entry): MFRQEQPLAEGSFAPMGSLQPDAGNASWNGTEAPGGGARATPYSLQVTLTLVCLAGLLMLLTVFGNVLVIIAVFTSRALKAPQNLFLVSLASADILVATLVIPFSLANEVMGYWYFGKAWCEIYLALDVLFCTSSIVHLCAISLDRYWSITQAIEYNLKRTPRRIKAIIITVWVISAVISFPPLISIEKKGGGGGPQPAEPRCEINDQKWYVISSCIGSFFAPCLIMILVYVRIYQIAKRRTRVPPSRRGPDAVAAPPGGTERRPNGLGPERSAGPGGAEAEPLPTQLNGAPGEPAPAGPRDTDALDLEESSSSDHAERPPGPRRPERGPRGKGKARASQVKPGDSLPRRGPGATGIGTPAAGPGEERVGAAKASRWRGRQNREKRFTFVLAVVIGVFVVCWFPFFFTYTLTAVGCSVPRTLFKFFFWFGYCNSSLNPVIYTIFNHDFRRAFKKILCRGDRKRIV

D(1A) dopamine receptor = D(1A) dopamine receptor (Homo sapiens, UniProt P21728); assay: DRUGMATRIX: Dopamine D1 radioligand binding (ligand: [3H] SCH-23390); type: cell membranes, CHO, Membrane; settings: cho; Not Active = under 50% inhibition at 10 µM
Chain of D(1A) dopamine receptor (P21728 whole entry): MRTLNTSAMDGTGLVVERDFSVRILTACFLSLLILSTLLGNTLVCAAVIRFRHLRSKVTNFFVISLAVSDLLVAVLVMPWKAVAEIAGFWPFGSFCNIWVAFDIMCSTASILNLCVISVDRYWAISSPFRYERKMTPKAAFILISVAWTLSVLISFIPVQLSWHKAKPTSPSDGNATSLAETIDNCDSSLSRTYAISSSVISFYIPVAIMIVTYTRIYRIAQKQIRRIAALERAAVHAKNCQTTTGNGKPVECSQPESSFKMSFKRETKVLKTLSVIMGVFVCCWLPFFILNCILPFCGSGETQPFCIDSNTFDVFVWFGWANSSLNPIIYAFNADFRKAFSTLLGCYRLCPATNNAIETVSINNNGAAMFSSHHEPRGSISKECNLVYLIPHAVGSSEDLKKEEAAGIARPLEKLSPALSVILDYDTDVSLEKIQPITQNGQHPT

Progesterone receptor = target: T3, Progesterone receptor (Bos taurus, UniProt Q690N0); assay: DRUGMATRIX: Progesterone radioligand binding (ligand: [3H] R-5020); type: tissue-based, Uterus; settings: Not Active = under 50% inhibition at 10 µM
T3 sequence (Q690N0 whole entry): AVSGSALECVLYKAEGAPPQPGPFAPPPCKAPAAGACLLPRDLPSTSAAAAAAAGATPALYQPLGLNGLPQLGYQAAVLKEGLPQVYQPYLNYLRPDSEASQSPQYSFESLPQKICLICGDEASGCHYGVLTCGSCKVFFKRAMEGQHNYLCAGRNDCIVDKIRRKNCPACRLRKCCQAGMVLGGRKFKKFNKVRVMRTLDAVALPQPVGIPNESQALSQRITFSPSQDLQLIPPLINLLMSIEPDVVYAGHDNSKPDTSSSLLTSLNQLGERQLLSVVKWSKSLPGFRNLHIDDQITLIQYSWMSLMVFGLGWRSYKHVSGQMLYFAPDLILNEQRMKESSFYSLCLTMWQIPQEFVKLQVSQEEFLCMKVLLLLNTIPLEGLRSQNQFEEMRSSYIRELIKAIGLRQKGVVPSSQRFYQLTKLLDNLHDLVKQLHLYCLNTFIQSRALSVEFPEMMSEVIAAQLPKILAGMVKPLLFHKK

Cytochrome P450 1A2 = target: T4, Cytochrome P450 1A2 (Homo sapiens, UniProt P05177); settings: bti-tn-5b1-4; also: in other assays of this panel Not Active means under 50% inhibition at 10 µM
T4 sequence (P05177 whole entry): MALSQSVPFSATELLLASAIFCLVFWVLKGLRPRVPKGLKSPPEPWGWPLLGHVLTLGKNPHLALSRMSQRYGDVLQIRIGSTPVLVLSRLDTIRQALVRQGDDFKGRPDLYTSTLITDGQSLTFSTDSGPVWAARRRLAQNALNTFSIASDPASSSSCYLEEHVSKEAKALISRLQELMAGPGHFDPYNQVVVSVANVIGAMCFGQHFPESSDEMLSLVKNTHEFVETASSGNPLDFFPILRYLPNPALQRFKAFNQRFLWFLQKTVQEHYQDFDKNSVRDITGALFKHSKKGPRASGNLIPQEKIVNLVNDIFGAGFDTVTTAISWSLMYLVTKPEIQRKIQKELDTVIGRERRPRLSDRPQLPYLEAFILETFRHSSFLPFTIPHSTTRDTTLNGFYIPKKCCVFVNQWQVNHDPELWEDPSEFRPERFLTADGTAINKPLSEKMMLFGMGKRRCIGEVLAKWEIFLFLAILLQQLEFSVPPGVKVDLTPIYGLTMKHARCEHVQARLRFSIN

Cytochrome P450 2E1 = Cytochrome P450 2E1 (Homo sapiens, UniProt P05181); settings: bti-tn-5b1-4; also: in other assays of this panel Not Active means under 50% inhibition at 10 µM
Chain of Cytochrome P450 2E1 (P05181 whole entry): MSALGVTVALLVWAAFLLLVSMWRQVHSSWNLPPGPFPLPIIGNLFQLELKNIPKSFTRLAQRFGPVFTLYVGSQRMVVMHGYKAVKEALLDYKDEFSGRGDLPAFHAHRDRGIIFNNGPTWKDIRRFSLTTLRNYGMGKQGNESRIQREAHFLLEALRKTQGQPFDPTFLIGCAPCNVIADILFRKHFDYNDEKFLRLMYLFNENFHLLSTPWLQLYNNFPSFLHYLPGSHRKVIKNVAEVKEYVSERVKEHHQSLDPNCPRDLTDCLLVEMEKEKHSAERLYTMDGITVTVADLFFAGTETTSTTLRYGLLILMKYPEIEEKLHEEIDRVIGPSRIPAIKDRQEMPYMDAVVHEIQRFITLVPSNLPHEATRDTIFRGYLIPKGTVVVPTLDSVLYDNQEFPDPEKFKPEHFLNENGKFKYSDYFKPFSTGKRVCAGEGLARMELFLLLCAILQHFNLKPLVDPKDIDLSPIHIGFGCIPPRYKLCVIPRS

Cytochrome P450 3A4 = Cytochrome P450 3A4 (Homo sapiens, UniProt P08684); settings: bti-tn-5b1-4; also: in other assays of this panel Not Active means under 50% inhibition at 10 µM
Chain of Cytochrome P450 3A4 (P08684 whole entry): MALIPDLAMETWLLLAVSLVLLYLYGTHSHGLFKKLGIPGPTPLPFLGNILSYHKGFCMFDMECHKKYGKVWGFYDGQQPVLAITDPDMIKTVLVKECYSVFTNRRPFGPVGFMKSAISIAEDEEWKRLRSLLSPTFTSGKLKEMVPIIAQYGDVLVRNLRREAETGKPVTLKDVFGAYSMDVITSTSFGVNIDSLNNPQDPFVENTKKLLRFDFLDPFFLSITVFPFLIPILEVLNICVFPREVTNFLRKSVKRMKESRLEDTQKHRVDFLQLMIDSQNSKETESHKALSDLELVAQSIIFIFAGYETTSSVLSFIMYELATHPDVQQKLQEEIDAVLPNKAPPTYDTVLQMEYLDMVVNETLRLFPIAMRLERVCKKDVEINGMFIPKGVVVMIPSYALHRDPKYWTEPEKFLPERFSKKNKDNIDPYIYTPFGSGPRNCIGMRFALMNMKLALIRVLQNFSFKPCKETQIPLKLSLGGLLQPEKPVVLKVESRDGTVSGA

SMILES	IC50 [1]	IC50 ([2]; sf9)	IC50 (D(1A) dopamine receptor)	IC50 (Progesterone receptor)	IC50 (Cytochrome P450 1A2)	Ki (Cytochrome P450 1A2)	IC50 (Cytochrome P450 2E1)	Ki (Cytochrome P450 2E1)	IC50 (Cytochrome P450 3A4)	Ki (Cytochrome P450 3A4)	IC50 ([2]; read-out: IC50)	Ki [2]	IC50 ([1]; read-out: IC50)	Ki ([1]; read-out: Ki)
CC(N)C12CC3CC(CC(C3)C1)C2 (stereo unspecified) [RIMANTADINE]	Not Active	Not Active	Not Active	Not Active	Not Active	Not Active	Not Active	Not Active	Not Active	Not Active	–	–	–	–
CS(=O)(=O)c1ccc(C2=C(c3ccccc3)C(=O)OC2)cc1 [ROFECOXIB]	Not Active	Not Active	Not Active	Not Active	Not Active	Not Active	Not Active	Not Active	Not Active	Not Active	–	–	–	–
CCOc1cc(N)c(Cl)cc1C(=O)NCC1CN(Cc2ccc(F)cc2)CCO1 (stereo unspecified) [MOSAPRIDE]	Not Active	–	Not Active	Not Active	–	–	Not Active	Not Active	–	–	3680 nM	1380 nM	–	–
Oc1ccc(/C=C/c2cc(O)cc(O)c2)cc1 [RESVERATROL]	Not Active	Not Active	Not Active	–	–	–	Not Active	Not Active	–	–	–	–	–	–
C=CCc1ccc2c(c1)OCO2 [SAFROLE]	Not Active	Not Active	Not Active	Not Active	–	–	Not Active	Not Active	Not Active	Not Active	–	–	–	–
O=C(OC[C@H]1O[C@@H](OC(=O)c2cc(O)c(O)c(OC(=O)c3cc(O)c(O)c(O)c3)c2)[C@H](OC(=O)c2cc(O)c(O)c(OC(=O)c3cc(O)c(O)c(O)c3)c2)[C@@H](OC(=O)c2cc(O)c(O)c(OC(=O)c3cc(O)c(O)c(O)c3)c2)[C@@H]1OC(=O)c1cc(O)c(O)c(OC(=O)c2cc(O)c(O)c(O)c2)c1)c1cc(O)c(O)c(OC(=O)c2cc(O)c(O)c(O)c2)c1 [TANNIC ACID]	Not Active	Not Active	Not Active	Not Active	–	–	Not Active	Not Active	Not Active	Not Active	–	–	–	–
CN1C[C@H](CNC(=O)OCc2ccccc2)C[C@@H]2c3cccc4c3c(cn4C)C[C@H]21 [METERGOLINE]	–	–	–	Not Active	Not Active	Not Active	Not Active	Not Active	Not Active	Not Active	–	–	262 nM	145 nM
CCN(CC)C(=S)SSC(=S)N(CC)CC	Not Active	–	–	Not Active	–	–	Not Active	Not Active	Not Active	Not Active	–	–	–	–
Cc1cc2c(s1)Nc1ccccc1N=C2N1CCN(C)CC1 [OLANZAPINE]	–	–	–	Not Active	Not Active	Not Active	Not Active	Not Active	Not Active	Not Active	–	–	–	–
Nc1nc(N)c2nc(-c3ccccc3)c(N)nc2n1	Not Active	Not Active	Not Active	Not Active	Not Active	Not Active	Not Active	Not Active	–	–	–	–	–	–
Cc1ccc(S(=O)(=O)NC(=O)NN2CCCCCC2)cc1 [TOLAZAMIDE]	Not Active	Not Active	Not Active	Not Active	–	–	–	–	–	–	–	–	–	–
CO[C@@H]1[C@@H](OC)[C@H](C)[C@@](O)(CC(=O)O)O[C@H]1[C@H](C)[C@H]1O[C@@]2(CC[C@@](C)([C@H]3CC[C@@](C)([C@@H]4O[C@@H]([C@H]5O[C@](C)(O)[C@H](C)C[C@@H]5C)C[C@@H]4O[C@@H]4C[C@H](OC)[C@@H](OC)[C@H](C)O4)O3)O2)C[C@H](O)[C@H]1C.N [MADURAMICIN]	–	Not Active	–	Not Active	Not Active	Not Active	Not Active	Not Active	Not Active	Not Active	–	–	–	–
CCC(C)(C)C(=O)O[C@H]1C[C@@H](C)C=C2C=C[C@H](C)[C@H](CC[C@@H]3C[C@@H](O)CC(=O)O3)[C@H]21 [SIMVASTATIN]	Not Active	Not Active	Not Active	Not Active	–	–	–	–	–	–	–	–	–	–
CN(C)CCC=C1c2ccccc2COc2ccccc21 [DOXEPIN]	–	–	–	Not Active	Not Active	Not Active	Not Active	Not Active	Not Active	Not Active	–	–	–	–
Cc1[nH]c(=O)c(C#N)cc1-c1ccncc1 [MILRINONE]	Not Active	Not Active	Not Active	–	Not Active	Not Active	Not Active	Not Active	Not Active	Not Active	–	–	–	–
CC[C@@]1(O)C(=O)OCc2c1cc1n(c2=O)Cc2cc3c(CN(C)C)c(O)ccc3nc2-1 [TOPOTECAN]	Not Active	Not Active	Not Active	Not Active	Not Active	Not Active	Not Active	Not Active	–	–	–	–	–	–
CC#C[C@]1(O)CC[C@H]2[C@@H]3CCC4=CC(=O)CCC4=C3[C@@H](c3ccc(N(C)C)cc3)C[C@@]21C [MIFEPRISTONE]	Not Active	Not Active	Not Active	–	Not Active	Not Active	Not Active	Not Active	–	–	–	–	–	–
Cc1cccc(C)c1NC(=O)C(C)N (stereo unspecified) [TOCAINIDE]	Not Active	Not Active	Not Active	–	Not Active	Not Active	Not Active	Not Active	Not Active	Not Active	–	–	–	–
CCOC(=O)C1=C(C)NC(C)=C(C(=O)OCC)C1c1ccccc1/C=C/C(=O)OC(C)(C)C [LACIDIPINE]	Not Active	Not Active	Not Active	Not Active	Not Active	Not Active	Not Active	Not Active	–	–	–	–	–	–
CC[C@H](C)[C@@H](CO[C@@H](Cc1ccccc1)C(=O)N[C@@H](CCS(C)(=O)=O)C(=O)OC(C)C)NC[C@@H](N)CS	Not Active	–	Not Active	Not Active	Not Active	Not Active	Not Active	Not Active	–	–	432 nM	162 nM	–	–
CNCCCC12CCC(c3ccccc31)c1ccccc12 [MAPROTILINE]	–	–	–	Not Active	–	–	–	–	–	–	–	–	–	–
C1CCN2C[C@@H]3C[C@@H](CN4CCCC[C@@H]34)[C@H]2C1 [SPARTEINE]	Not Active	Not Active	Not Active	Not Active	–	–	–	–	–	–	–	–	–	–
